Measured values as given in patent US20140213454A1, “METHODS TO INDUCE DROUGHT TOLERANCE IN CROPS” (Valent BioSciences Corporation, priority 2013, published 2014).

Experiments:
corn [1] = test: Replicated corn trial 2012, moderate drought (Example 1); type: in vivo
Protocol: A replicated corn silage study was conducted in 2012. Corn was planted on May 18, 2012, and treated with two rates of GA3 at either the V2 (June 2) or V5 (June 18) growth stage, each time at two rates of GA3. Grain yields were estimated from harvests of 20 feet of row and converted to bushels of grain per acre. There was 1.5 inches of rain in the two weeks before planting but no rain from May 10 until May 29, when there was 0.7 inch rain. During June there was 2.9 inches of rain spread over the month. There were only two rain events from July 1-25, each of less than 0.2 inches. On July 26th there was approximately 2 inches of rain. Rainfall in June, July and August was about one third below the 30-year average for the area and the corn was under moderate drought conditions. Crop moisture conditions in July were described as ‘excessively dry’ by the National Climate Data Center of NOAA.

corn [2] = test: Replicated corn trial 2012, extreme and exceptional drought (Example 2); type: in vivo; conditions: for Grain Yield: extreme and exceptional drought, untreated 88.45
Excerpt: In a replicated trial conducted in 2012, the corn crop experienced extreme and exceptional drought in July, as described by the National Climate Data Center. Corn was planted at the end of April and treated with GA3 at either the V2 or V5 growth stages. Thirty two days after application, the GA3-treated corn was approximately 10 inches taller than the untreated on average.

hybrid corn = test: Field trial 2012, time course of GA3 applications, hybrid corn (Example 3); type: in vivo; conditions: 5.3 grams GA3/acre, extreme and exceptional drought, untreated 116
Protocol: In another field trial conducted in 2012 a time course of GA3 applications was performed. In this trial, hybrid corn was planted on April 24, 2012 at a density of 32,000 plants/acre. The plants were sprayed with GA3 at either the fifth leaf (V5) or tassel emergence (VT) on June 6 or July 7, respectively. This trial was subjected to extreme and exceptional drought in July during set and grain fill. As is shown in Table 3 below, the effect of the spray treatments of GA3 was dependent on the timing of the GA3 application.

corn [3] = conditions: Robertson and Greenway 1973; cited from earlier work
perennial ryegrass = conditions: Jiang and Fry 1998; cited from earlier work

## C=C1C[C@]23C[C@@]1(O)CC[C@H]2[C@@]12C=C[C@H](O)[C@@](C)(C(=O)O1)[C@H]2[C@@H]3C(=O)O [GA3, gibberellic acid]
Corn [1]; 3.2 grams GA3/acre, application timing V2, untreated 124.0
  Grain Yield: 141.2 Bu/Acre
Corn [1]; 3.2 grams GA3/acre, application timing V5, untreated 124.0
  Grain Yield: 143.0 Bu/Acre
Corn [1]; 6.4 grams GA3/acre, application timing V2, untreated 124.0
  Grain Yield: 141.1 Bu/Acre
Corn [1]; 6.4 grams GA3/acre, application timing V5, untreated 124.0
  Grain Yield: 156.1 Bu/Acre
Corn [2]; 3.2 grams GA3/acre, application stage V2
  Grain Yield: 119.70 Bu/Acre
Corn [2]; 3.2 grams GA3/acre, application stage V5
  Grain Yield: 155.65 Bu/Acre
Corn [2]; 6.4 grams GA3/acre, application stage V2
  Grain Yield: 119.83 Bu/Acre
Corn [2]; 6.4 grams GA3/acre, application stage V5
  Grain Yield: 121.60 Bu/Acre
Corn [2]; thirty two days after application at V2 or V5
  Plant height, taller than the untreated on average: approximately 10 inches
Hybrid corn; application stage V5
  Grain Yield: 155 Bu/Acre
Hybrid corn; application stage VT (tassel emergence)
  Grain Yield: 131 Bu/Acre

## C[N+](C)(C)CCCl [chlormequat chloride]
Corn [3]
  Drought resistance: induce drought resistance in corn

## CCOC(=O)C1CC(=O)C(=C(O)C2CC2)C(=O)C1 (stereo not shown) [Trinexapac-ethyl, trinexapac-ethyl]
Perennial ryegrass
  Drought tolerance: induce drought tolerance in perennial ryegrass
